test: RP, Agilent ZORBAX Eclipse Plus C18, 150 × 2.1 mm, 3.5 µm, 40 °C, 0.3 mL/min, estimated dead time 1.1 min; A: water + 0.1% formic acid; B: acetonitrile + 0.1% formic acid; gradient (min/%B) 0/2 1/2 2/20 16.5/98 22/98; settings: stereoisomer not certain

Structure (SMILES) | LC retention time [min]
COC(=O)C1C2CC3c4[nH]c5cc(OC)ccc5c4CCN3CC2CC(OC(=O)c2cc(OC)c(OC)c(OC)c2)C1OC (stereo not given) | 8.6
CNC(=O)ON=C(C)C(C)SC (stereo not given) | 7.75
Cc1ccc(S(=O)(=O)O)cc1 | 5.4
CC(C)(C)NCC(O)COc1cccc2c1CC(O)C(O)C2 (stereo not given) | 5.13
CSc1nc(NC2CC2)nc(NC(C)(C)C)n1 | 10.2
Cc1ccc2n[nH]nc2c1 | 7.02
CC(=O)Nc1c(C)n(C)n(-c2ccccc2)c1=O | 5.59
CC(C(=O)O)c1ccc2cc(O)ccc2c1 (stereo not given) | 8.5
Cc1cc(C2CC2)nc(Nc2ccccc2)n1 | 10.8
COc1ccccc1NC(C)=O | 7.37
NC(Cc1ccc(O)cc1)C(=O)O (stereo not given) | 2.61
CCC1(c2cccc(O)c2)CCCCN(C)C1 (stereo not given) | 5.64
COC(=O)c1cccc(O)c1 | 7.88
NC12CC3CC(CC(C3)C1)C2 | 5.15
Nc1nc(N)c2nc(-c3ccccc3)c(N)nc2n1 | 5.2
CCOc1nc2cccc(C(=O)O)c2n1Cc1ccc(-c2ccccc2-c2nn[nH]n2)cc1 | 10
CCCOP(=O)(OCCC)OCCC | 10.9
CCC(C)C1OC2(C=CC1C)CC1CC(CC=C(C)C(OC3CC(OC)C(OC4CC(OC)C(NC(C)=O)C(C)O4)C(C)O3)C(C)C=CC=C3COC4C(O)C(C)=CC(C(=O)O1)C34O)O2 (stereo not given) | 16.2
CCCCCCOC(=O)c1ccccc1C(=O)OCCCCCC | 18.1
O=C1CC2(CCCCC2)C(=O)N1 | 7.4
COc1ccccc1Oc1c(NS(=O)(=O)c2ccc(C(C)(C)C)cc2)nc(-c2ncccn2)nc1OCCO | 12.1
CCC1OC(=O)CC(O)C(C)C(OC2OC(C)C(OC3CC(C)(O)C(O)C(C)O3)C(N(C)C)C2O)C(CC=O)CC(C)C(=O)C=CC(C)=CC1COC1OC(C)C(O)C(OC)C1OC (stereo not given) | 8.18
CCCCCCCC[N+](C)(C)CCCCCCCC | 11.7
NC(=O)N1c2ccccc2C=Cc2cc(O)ccc21 | 7.48
Cc1ncc([N+](=O)[O-])n1CCO | 4.81
CN(C)c1ccc(C(=C2C=CC(N(C)C)C=C2)c2ccccc2)cc1 (stereo not given) | 9.29
COCC(=O)N(c1c(C)cccc1C)C(C)C(=O)OC (stereo not given) | 10.2
COc1cccc(OC)c1OC | 9.03

Structure (SMILES) | LC retention time [min]
COc1cc(-c2oc3cc(O)cc(O)c3c(=O)c2O)ccc1O | 9.42
COC1C(OC(C)=O)CC(=O)OC(C)CC=CC=CC(O)C(C)CC(CC=O)C1OC1OC(C)C(OC2CC(C)(O)C(OC(=O)CC(C)C)C(C)O2)C(N(C)C)C1O (stereo not given) | 8.87
CC(C)(C)NCC(O)c1ccc(O)c(CO)c1 (stereo not given) | 4.69
CCCCCCCCCCCCCCN(C)C | 11.4
O=c1[nH]cnc2c1cnn2C1OC(CO)C(O)C1O (stereo not given) | 4.31
CCN(CC)CCNC(=O)c1cc(S(C)(=O)=O)ccc1OC | 4.86
Cn1cnc2nc[nH]c2c1=N | 2.36
CCN(CC)C(=O)c1cccc(C(=O)O)c1 | 7.36
Cc1ccc(C(=O)O)cc1 | 8.54
O=P(Oc1ccccc1)(Oc1ccccc1)Oc1cccc(OP(=O)(Oc2ccccc2)Oc2ccccc2)c1 | 15.9
CSc1nc(NC(C)C)nc(NC(C)C)n1 | 9.53
COCCN(C(=O)CS(=O)(=O)O)c1c(C)cccc1C | 6.76
Cc1ccc(-c2nc3ccccc3[nH]2)cc1 | 6.06
C=CCC1=C(C)C(OC(=O)C2C(C=C(C)C)C2(C)C)CC1=O (stereo not given) | 16.1
CCOC(=O)Nc1ccc(C)c(NC(=O)OCC)c1 | 10.1
CCCc1nc(C(C)(C)O)c(C(=O)O)n1Cc1ccc(-c2ccccc2-c2nn[nH]n2)cc1 | 7.36
CC(C(=O)O)c1ccc(CC(C)(C)O)cc1 (stereo not given) | 8.21
CNCC1CCCCC1(O)c1cccc(OC)c1 (stereo not given) | 6.25
C=CC[N+](CC)(CC)Cc1ccccc1 | 5.35
CNCC(CC(=O)O)CC(C)C (stereo not given) | 4.84
CC1=CC(C)(C)Nc2ccccc21 | 12.5
Nc1ncnc2c1ncn2C1CC(O)C(CO)O1 (stereo not given) | 3.4
CC(C)(C)CC(C)(C)c1ccc(OCCOCC[N+](C)(C)Cc2ccccc2)cc1 | 11.5
CNC(=O)Oc1cccc2ccccc12 | 10.1
CCCCCCCCN1CCCC1=O | 12.6
COC1CC(CC2CCC(C)C(C(C)C(=O)O)O2)OC2(OC(C)(C3CCC(C)(C4OC(C5OC(O)(CO)C(C)CC5C)CC4C)O3)CC2C)C1C (stereo not given) | 21.2
Nc1ccc2c(c1)C(=O)OC21c2ccc(O)cc2Oc2cc(O)ccc21 | 8.16
